Measured values from patent US5292752A, “Antithrombotic compounds” (Merrell Dow Pharmaceuticals Inc., priority 1992, dated 1994).

How the values were obtained:
thrombus formation = settings: canine models; Bush et al., Drug Development Research, Vol. 7 (1986); cited from earlier work
[1] = system: rabbit vascular smooth muscle cells; settings: culture of rabbit vascular smooth muscle cells; Araki et al., Atherosclerosis, 83 (1990); cited from earlier work
[2] = system: phospholipase C mediated hydrolysis of phosphoinositides in rabbit vascular smooth muscle cells; settings: Araki et al.; cited from earlier work
[3] = system: coronary vessel constriction; settings: patients with stable angina; Golino et al., NEJM 1991; cited from earlier work
5HT2 receptor [4] = target: T1, 5HT2 receptor (Rattus norvegicus, UniProt P14842); assay: [3H] spiroperidol binding test
T1 construct: from tissue
Source text: In this test, 5HT2 receptors are exposed to both [^3 H] spiroperidol, (a substance known to have a specific affinity for the receptor) and the test compound. The extent to which there is a decrease in binding of the [^3 H] spiroperidol to the receptor is indicative of the affinity of the test compound for the 5HT2 receptor.
1-(4-Fluorophenyl)-2-[4-[(4-methanesulfonamidophenyl)carbonyl]-1-piperidinyl]-ethanone (Compound #1) and 1-(4-fluorophenyl)-2-[4-[(4-acetamidophenyl)carbonyl]-1-piperidinyl]-ethanone (Compound #2) were tested in this procedure. For comparative purposes, 1-(3-pyridyl)-2-[4 -[(4-methanesulfonamidophenyl)carbonyl]-1-piperidinyl]ethanone (Compound #3) and N-[4-[[1-[2-(4-fluoro phenyl)ethyl]-4-piperidne]carbenyl]phenyl] methane sulfononamide (compound #4) were also tested. Compound #4 was described in European Application 0 320 983, supra, as Example Number 8 and was prepared in that manner.

5HT2 receptor [5] = target: T2, 5HT2 receptor (Mus musculus, UniProt P35363); assay: 5-DMT head twitch test; type: in vivo; settings: ip, mice, 5-DMT induced head twitch, read-out: ED50 FOR ABOLITION OF HEAD TWITCH
T2 construct: from tissue; host or cells: whole living mouse (endogenous receptor of the brain)
Experimental: Psychopharmacol., Vol. 3, pages 89-92, (1979). The administration of 5-methoxy-N,N-dimethyltryptamine (DMT) to mice typically produces a characteristic head twitch in the mice. In this test, the mice are administered 5-DMT and a test compound. An absence of head twitches in the mice is considered to be predictive of the ability of the test compound to antagonize the 5HT2 receptor in vivo.

T2 sequence (P35363 whole entry): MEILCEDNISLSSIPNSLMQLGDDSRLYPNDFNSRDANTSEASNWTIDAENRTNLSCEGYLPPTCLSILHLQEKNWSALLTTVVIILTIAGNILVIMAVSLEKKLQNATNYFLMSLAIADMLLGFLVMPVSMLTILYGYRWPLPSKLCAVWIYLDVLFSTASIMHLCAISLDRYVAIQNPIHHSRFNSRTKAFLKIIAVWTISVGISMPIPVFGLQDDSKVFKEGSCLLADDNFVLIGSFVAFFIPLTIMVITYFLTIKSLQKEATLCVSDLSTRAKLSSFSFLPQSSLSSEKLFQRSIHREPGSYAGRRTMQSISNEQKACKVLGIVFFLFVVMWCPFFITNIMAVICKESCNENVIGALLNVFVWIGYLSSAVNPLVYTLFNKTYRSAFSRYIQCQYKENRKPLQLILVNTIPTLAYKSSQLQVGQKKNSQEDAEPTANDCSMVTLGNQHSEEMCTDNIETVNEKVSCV
T1 sequence (P14842 whole entry): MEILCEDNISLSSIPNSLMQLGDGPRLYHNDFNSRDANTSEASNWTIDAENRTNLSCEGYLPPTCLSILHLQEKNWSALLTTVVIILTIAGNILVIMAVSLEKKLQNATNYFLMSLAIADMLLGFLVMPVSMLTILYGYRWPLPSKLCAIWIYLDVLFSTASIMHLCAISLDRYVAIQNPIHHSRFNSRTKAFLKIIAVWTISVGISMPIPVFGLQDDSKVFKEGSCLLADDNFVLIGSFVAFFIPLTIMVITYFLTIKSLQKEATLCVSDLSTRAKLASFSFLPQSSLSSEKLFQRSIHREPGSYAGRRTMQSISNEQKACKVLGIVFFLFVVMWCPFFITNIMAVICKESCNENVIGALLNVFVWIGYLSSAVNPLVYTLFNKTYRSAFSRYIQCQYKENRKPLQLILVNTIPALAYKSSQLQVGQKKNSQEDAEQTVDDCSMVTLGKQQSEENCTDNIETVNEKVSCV

SMILES: O=C(c1ccc(F)cc1)C1CCN(CCn2c(=O)[nH]c3ccccc3c2=O)CC1 [Ketanserin]
- prevention of thrombus formation (thrombus formation): extremely effective in preventing thrombus formation
- inhibition of PDGF induced DNA synthesis [1]: inhibited PDGF induced DNA synthesis
- inhibition of phospholipase C mediated hydrolysis of phosphoinositides [2]: inhibited phospholipase C mediated hydrolysis of phosphoinositides
- block of coronary vessel constriction [3]: blocked coronary vessel constriction

SMILES: CS(=O)(=O)Nc1ccc(C(=O)C2CCN(CCc3ccc(F)cc3)CC2)cc1 [Compound #4, N-[4-[[1-[2-(4-fluorophenyl)ethyl]-4-piperidne]carbenyl]phenyl] methane sulfononamide]
- IC50 (5HT2 receptor [4]): 100 nM
- ED50 (5HT2 receptor [5]): 0.49 mg/kg

SMILES: CS(=O)(=O)Nc1ccc(C(=O)C2CCN(CC(=O)c3cccnc3)CC2)cc1 [Compound #3, 1-(3-pyridyl)-2-[4-[(4-methanesulfonamidophenyl)carbonyl]-1-piperidinyl]-ethanone]
- ED50 (5HT2 receptor [5]): > 200 mg/kg

SMILES: CC(=O)Nc1ccc(C(=O)C2CCN(CC(=O)c3ccc(F)cc3)CC2)cc1 [Compound #2, 1-(4-fluorophenyl)-2-[4-[(4-acetamidophenyl)carbonyl]-1-piperidinyl]-ethanone]
- ED50 (5HT2 receptor [5]): 0.051 mg/kg

SMILES: CS(=O)(=O)Nc1ccc(C(=O)C2CCN(CC(=O)c3ccc(F)cc3)CC2)cc1 [Compound #1, 1-(4-Fluorophenyl)-2-[4-[(4-methanesulfonamidophenyl)carbonyl]-1-piperidinyl]-ethanone]
- ED50 (5HT2 receptor [5]): 0.034 mg/kg
